How the values were obtained:
in vitro [1] = conditions: dog, MDCK-MDR1
in vitro [2] = conditions: human, microsomes

`O=C1NCCCNC(=O)c2cccc(n2)Nc2cc([nH]n2)[C@H]2CC[C@H](C2)O1` showed a Papp A→B at […], 5 µM (in vitro [1]) of 9 nm/s and a half-life at 0.75 h, 1 µM (in vitro [2]) of 1.07 h.
